These molecules were tested on NCIH929.1 cells (assay: Cell viability assay for Table 2 (CellTiter-Glo 2.0, ATP quantification, 96 hr)). Details: 96 h.
Type: cell-based
Source text: Cell Viability Assay for Table 2
CellTiter-Glo® 2.0 Assay was purchased from Promega (Madison, Wis., USA). NCIH929.1 cell line was purchased from ATCC (Manassas, Va., USA). Cell culture flasks and 384-well microplates were acquired from VWR (Radnor, Pa., USA).
With `N#Cc1ccc(N2CCN(Cc3ccc(Cc4ccc5c6c(cccc46)C(=O)N5C4CCC(=O)NC4=O)cc3F)CC2)c(F)c1` (stereo not drawn) [Compound 214, 4-[4-[[4-[[1-(2,6-dioxo-3-piperidyl)-2-oxo-benzo[cd]indol-6-yl]methyl]-2-fluoro-phenyl]methyl]piperazin-1-yl]-3-fluoro-benzonitrile] the IC50 was under 1 nM.

Same assay, conditions: 96 h, NCIH929.1 cell viability, 96 hr, top concentration 1 μM, 14 points half log titration; read-out: IC50
Work on `CC12CC(C(=O)N3CCC(C)(n4cc(Cc5ccc6c7c(cccc57)C(=O)N6C5CCC(=O)NC5=O)cn4)CC3)(CCO1)C2` (stereo not drawn) [Compound 88, 3-(6-((1-(4-methyl-1-(1-methyl-2-oxabicyclo[3.1.1]heptane-5-carbonyl)piperidin-4-yl)-1H-pyrazol-4-yl)methyl)-2-oxobenzo[cd]indol-1(2H)-yl)piperidine-2,6-dione] yielded an IC50 of under 1 nM.
`CC1(c2cn(Cc3ccc4c5c(cccc35)C(=O)N4C3CCC(=O)NC3=O)nn2)CCN(C(=O)C2(C(F)(F)F)CC2)CC1` (stereo not drawn) [Compound 127, 3-[6-[[4-[4-methyl-1-[1-(trifluoromethyl)cyclopropanecarbonyl]-4-piperidyl]triazol-1-yl]methyl]-2-oxo-benzo[cd]indol-1-yl]piperidine-2,6-dione] was tested, and the IC50 was under 1 nM.
In the case of `N#Cc1ccc(N2CCN(Cc3ccn(Cc4ccc5c6c(cccc46)C(=O)N5C4CCC(=O)NC4=O)n3)CC2)c(F)c1` (stereo not drawn) [Compound 208, 4-(4-((1-((1-(2,6-dioxopiperidin-3-yl)-2-oxo-1,2-dihydrobenzo[cd]indol-6-yl)methyl)-1-H-pyrazol-3-yl)methyl)piperazin-1-yl)-3-fluorobenzonitrile], the IC50 is reported as under 1 nM.
With `CC(C1CC1)N1CCC(n2cc(Cc3ccc4c5c(cccc35)C(=O)N4C3CCC(=O)NC3=O)cn2)CC1` (single isomer, unassigned) [Compound 282, 3-(6-((1-(1-(1-cyclopropylethyl)piperidin-4-yl)-1H-pyrazol-4-yl)methyl)-2-oxobenzo[cd]indol-1(2H)-yl)piperidine-2,6-dione] the IC50 was under 1 nM.
`CN1CC2CC(C(=O)N3CCC(n4cc(Cc5ccc6c7c(cccc57)C(=O)N6C5CCC(=O)NC5=O)cn4)CC3)(C2)C1` (stereo not drawn) [Compound 265, 3-(6-((1-(1-(3-methyl-3-azabicyclo[3.1.1]heptane-1-carbonyl)piperidin-4-yl)-1H-pyrazol-4-yl)methyl)-2-oxobenzo[cd]indol-1(2H)-yl)piperidine-2,6-dione] was tested, and the IC50 was under 1 nM.
`CC1(n2cc(Cc3ccc4c5c(cccc35)C(=O)N4C3CCC(=O)NC3=O)cn2)CCN(C(=O)C23CC(C2)C3)CC1` (stereo not drawn) [Compound 91, 3-(6-((1-(1-(bicyclo[1.1.1]pentane-1-carbonyl)-4-methylpiperidin-4-yl)-1H-pyrazol-4-yl)methyl)-2-oxobenzo[cd]indol-1(2H)-yl)piperidinc-2,6-dione] showed an IC50 of under 1 nM.
With `CC(C)(C)C[C@H]1CC[C@@H](n2cc(Cc3ccc4c5c(cccc35)C(=O)N4C3CCC(=O)NC3=O)cn2)CC1` (stereo partly drawn) [Compound 259, 3-(6-((1-((1r,4r)-4-neopentylcyclohexyl)-1H-pyrazol-4-yl)methyl)-2-oxobenzo[cd]indol-1(2H)-yl)piperidine-2,6-dione] the IC50 was under 1 nM.
`CN(C)C1(C(=O)N2CCC(n3cc(Cc4ccc5c6c(cccc46)C(=O)N5C4CCC(=O)NC4=O)cn3)CC2)CCC1` (stereo not drawn) [Compound 287, 3-[6-[[1-[1-[1-(dimethylamino)cyclobutanecarbonyl]-4-piperidyl]pyrazol-4-yl]methyl]-2-oxo-benzo[cd]indol-1-yl]piperidine-2,6-dione] showed an IC50 of under 1 nM.
`CC1(CN2CCC(n3cc(C4(c5ccc6c7c(cccc57)C(=O)N6C5CCC(=O)NC5=O)CC4)cn3)CC2)CCC1` (stereo not drawn) [Compound 164, 3-[6-[1-[1-[1-[(1-methylcyclobutyl)methyl]-4-piperidyl]pyrazol-4-yl]cyclopropyl]-2-oxo-benzo[cd]indol-1-yl]piperidine-2,6-dione] gave an IC50 of under 100 nM.
In the case of `CC(C)(C)OC1CCC(n2cc(Cc3ccc4c5c(cccc35)C(=O)N4C3CCC(=O)NC3=O)cn2)CC1` (stereo not drawn) [Compound 212, 3-[6-[[1-(4-tert-butoxycyclohexyl)pyrazol-4-yl]methyl]-2-oxo-benzo[cd]indol-1-yl]piperidine-2,6-dione], the IC50 is reported as under 1 nM.
`CC(c1ccc(Cc2ccc3c4c(cccc24)C(=O)N3C2CCC(=O)NC2=O)cc1)N1CCN(c2ccccc2F)CC1` (single isomer, unassigned) [Compound 284, 3-[6-[[4-[1-[4-(2-fluorophenyl)piperazin-1-yl]ethyl]phenyl]methyl]-2-oxo-benzo[cd]indol-1-yl]piperidine-2,6-dione] showed an IC50 of under 1 nM.
For `CC1(n2cc(Cc3ccc4c5c(cccc35)C(=O)N4C3CCC(=O)NC3=O)cn2)CCN(S(=O)(=O)C2(C)CCC2)CC1` (stereo not drawn) [Compound 233, 3-[6-[[1-[4-methyl-1-(1-methylcyclobutyl)sulfonyl-4-piperidyl]pyrazol-4-yl]methyl]-2-oxo-benzo[cd]indol-1-yl]piperidine-2,6-dione], the IC50 was under 1 nM.
In the case of `CC1(CN2CCC(n3cc(Cc4ccc5c6c(cccc46)C(=O)N5C4CCC(=O)NC4=O)cn3)CC2)CC1` (stereo not drawn) [Compound 64, 3-[6-[[1-[1-[(1-methylcyclopropyl)methyl]-4-piperidyl]pyrazol-4-yl]methyl]-2-oxo-benzo[cd]indol-1-yl]piperidine-2,6-dione], the IC50 is reported as under 1 nM.
`CC1(C(=O)N2CCC(n3cc(Nc4ccc5c6c(cccc46)C(=O)N5C4CCC(=O)NC4=O)cn3)CC2)CCC1` (stereo not drawn) [Compound 249, 3-[6-[[1-[1-(1-methylcyclobutanecarbonyl)-4-piperidyl]pyrazol-4-yl]amino]-2-oxo-benzo[cd]indol-1-yl]piperidine-2,6-dione] gave an IC50 of under 100 nM.
With `O=C1CCC(N2C(=O)c3cccc4c(Cc5ccc(CN6CCC7(CCCO7)CC6)cc5)ncc2c34)C(=O)N1` (stereo not drawn) [Compound 267, 3-[24-[[4-(1-oxa-8-azaspiro[4.5]decan-8-ylmethyl)phenyl]methyl]-28-oxo-31,34-diazatricyclododeca-,2(22),7(23),21(25),24(31)-pentaen-34-yl]piperidine-2,6-dione] the IC50 was under 1 nM.
`CC1(CN2CCN(c3ccc(Cc4ccc5c6c(cccc46)C(=O)N5C4CCC(=O)NC4=O)cc3)CC2)CCC1` (stereo not drawn) [Compound 168, 3-[6-[[4-[4-[(1-methylcyclobutyl)methyl]piperazin-1-yl]phenyl]methyl]-2-oxo-benzo[cd]indol-1-yl]piperidine-2,6-dione] showed an IC50 of under 1 nM.
For `O=C1CCC(N2C(=O)c3cccc4c(Cc5ccc(CN6CCOCC6)cc5)ccc2c34)C(=O)N1` (stereo not drawn) [Compound 218, 3-(6-(4-(morpholinomethyl)benzyl)-2-oxobenzo[cd]indol-1(2H)-yl)piperidine-2,6-dione], the IC50 was under 1 nM.
`O=C1CCC(N2C(=O)c3cccc4c(Cc5ccc(CN6CC7CCC(C6)O7)cc5)ccc2c34)C(=O)N1` (stereo not drawn) [Compound 115, 3-(6-(4-((8-oxa-3-azabicyclo[3.2.1]octan-3-yl)methyl)benzyl)-2-oxobenzo[cd]indol-1(2H)-yl)piperidine-2,6-dione] gave an IC50 of under 1 nM.
With `CC1(C(=O)N2CCC(n3cc(C(N)c4ccc5c6c(cccc46)C(=O)N5C4CCC(=O)NC4=O)cn3)CC2)CCC1` (stereo not drawn) [Compound 153, 3-(6-(amino(1-(1-(1-methylcyclobutane-1-carbonyl)piperidin-4-yl)-1H-pyrazol-4-yl)methyl)-2-oxobenzo[cd]indol-1(2H)-yl)piperidine-2,6-dione] the IC50 was under 1 nM.
For `CC1(C(=O)N2CCN(Cc3ccc(Cc4ccc5c6c(cccc46)C(=O)N5C4CCC(=O)NC4=O)cc3)CC2)CCC1` (stereo not drawn) [Compound 110, 3-(6-(4-((4-(1-methylcyclobutane-1-carbonyl)piperazin-1-yl)methyl)benzyl)-2-oxobenzo[cd]indol-1(2H)-yl)piperidine-2,6-dione], the IC50 was under 1 nM.
For `CC1(C(=O)N2CCC(n3cc(Cc4ccc5c6c(cccc46)C(=O)N5C4CCC(=O)NC4=O)nn3)CC2)CCC1` (stereo not drawn) [Compound 192, 3-[6-[[1-[1-(1-methylcyclobutanecarbonyl)-4-piperidyl]triazol-4-yl]methyl]-2-oxo-benzo[cd]indol-1-yl]piperidine-2,6-dione], the IC50 was under 1 nM.

Same assay, conditions: NCIH929.1 cell viability, 96 hr, top concentration 1 μM, 14 points half log titration; read-out: IC50
In the case of `O=C1CCC(N2C(=O)c3cccc4c(Cc5ccc(CN6CCN(c7ccc(F)cc7F)CC6)cc5)ccc2c34)C(=O)N1` (single isomer, unassigned) [Compound 257, 3-(6-(4-((4-(2,4-difluorophenyl)piperazin-1-yl)methyl)benzyl)-2-oxobenzo[cd]indol-1(2H)-yl)piperidine-2,6-dione], the IC50 is reported as under 1 nM.
For `N#Cc1ccc(N2CCN(Cc3ccc(Cc4ccc5c6c(cccc46)C(=O)N5C4CCC(=O)NC4=O)cc3)CC2)c(F)c1` (single isomer, unassigned) [Compound 185, 4-(4-(4-((1-(2,6-dioxopiperidin-3-yl)-2-oxo-1,2-dihydrobenzo[cd]indol-6-yl)methyl)benzyl)piperazin-1-yl)-3-fluorobenzonitrile], the IC50 was under 1 nM.
`CC(C)(C)OC(=O)N1CCC(n2cc(Cc3ccc4c5c(cccc35)C(=O)N4C3CCC(=O)NC3=O)cn2)CC1` (single isomer, unassigned) [Compound 142, tert-butyl 4-[4-[[1-[2,6-dioxo-3-piperidyl]-2-oxo-benzo[cd]indol-6-yl]methyl]pyrazol-1-yl]piperidine-1-carboxylate] gave an IC50 of under 1 nM.
Work on `CC(c1ccc(Cc2ccc3c4c(cccc24)C(=O)N3C2CCC(=O)NC2=O)cc1)N1CCN(c2ccccc2F)CC1` (single isomer, unassigned) [Compound 285, 3-[6-[[4-[1-[4-(2-fluorophenyl)piperazin-1-yl]ethyl]phenyl]methyl]-2-oxo-benzo[cd]indol-1-yl]piperidine-2,6-dione] yielded an IC50 of under 1 nM.
With `CC1(CN2CCC(n3cc(Cc4ccc5c6c(cccc46)C(=O)N5C4CCC(=O)NC4=O)cn3)CC2)CCC1` (single isomer, unassigned) [Compound 237, 3-[6-[[1-[1-[(1-methylcyclobutyl)methyl]-4-piperidyl]pyrazol-4-yl]methyl]-2-oxo-benzo[cd]indol-1-yl]piperidine-2,6-dione] the IC50 was under 1 nM.
